Laboratory results: paper PMC12207533, “Structure-guided design of a methyltransferase-like 3 (METTL3) proteolysis targeting chimera (PROTAC) incorporating an indole–nicotinamide chemotype” (RSC Medicinal Chemistry, 2025)
Where “and” joins values, the source holds several entries; their conditions need not be identical. Equal entries are not always repeated. Where two headings read alike, the source gives them in different places.

Key:
[1] = target: T1, VCB (VHL, elongin B, elongin C) (Homo sapiens, UniProt P40337); experiment: FP displacement assay with VCB (binary and ternary KD, cooperativity); type: binding
T1 construct: VHL (UniProt: P40337, aa 1–213); His6 (N); made in house; host or cells: E. coli BL21 (DE3)
Procedure: Fluorescence polarization (FP) displacement assays with METTL3/14 (ref. [36]) and VCB[38–40] were performed following previous protocols with slight adaptations. All experiments were conducted in black Greiner 96-well half-area plates using a Tecan Spark 10 M plate reader, equipped with polarization filters coupled to a monochromator setup (λex = 480 nm, λem = 530 nm). Reaction mixtures for METTL3/14 contained 300 nM recombinant enzyme, 20 nM FAM-labelled displacement tracer (STM-FL[36]), and the test compounds at varying concentrations in 25 mM Tris HCl, pH 7.5, 100 mM NaCl, and 10% DMSO. For VCB, the mixtures contained 40 nM recombinant enzyme, 10 nM FAM-labelled probe (FAM-DEALAHyp[…], Tocris Bioscience), and the tested compounds, at varying concentrations, in 50 mM Tris, pH 7.5, 200 mM NaCl, 2 mM DTT, and 10% DMSO. […] All measurements were performed at least as technical triplicates. Polarization values (mP) were determined from polarization-specific parallel and orthogonal fluorescence intensities using the Tecan in-built calculation routine. Using GraphPad Prism 8.0.1, the FP values were normalized, and KD values were calculated using a 4-parameter Hill equation: y(% probe bound) = bottom + ([ligand]slope) × (top–bottom)/([ligand]slope + KD slope).

[2] = target: T2, human VHL (Homo sapiens, UniProt P40337); experiment: HTRF human VHL binding kit; details: VHL affinity in presence and absence of METTL3/14 (4 μM)
T2 construct: purchased Revvity
Procedure: PROTACs binding to VHL or CRBN were measured using a homogeneous time-resolved fluorescence (HTRF) human VHL or CRBN binding kit (Revvity). Samples were prepared according to the manufacturer's protocol, with compounds diluted in the provided diluent while maintaining a constant DMSO concentration with a final concentration of 1.25%. For the ternary KD determinations, METTL3/14 was added at 4 μM, corresponding to approximately a 20- to 40-fold excess of binary KD, while all other component concentrations were kept as specified in the protocol. Measurements were performed in triplicate using a Tecan Spark 10 M plate reader, recording donor and acceptor emissions at λem_donor = 620 nm and λem_acceptor = 665 nm, respectively, following excitation of the HTRF donor at λex = 320 nm. The acceptor-to-donor emission ratio was calculated as ratio = signal 665 nm/signal 620 nm. Using GraphPad Prism 8.0.1, the fluorescence values were normalized, and KD values were calculated as specified above.

[3] = system: MOLM-13 cells; experiment: Cell viability assay (CellTiter Glo 2.0); type: cell-based, human; details: MOLM-13, 72 h, read-out: IC50 (cell viability inhibition)
Procedure: To determine cell viability, MOLM-13 cells were treated with the indicated compounds in a 1 : 1 serial dilution, with pure DMSO (final: 0.1%) as the negative control. Briefly, 1000 cells were seeded in black Greiner half-area 96-well plates and incubated for 72 h with inhibitors from DMSO stocks under standard cultivation conditions. Then, Promega CellTiter Glo 2.0 reagent was added to each well according to the manufacturer's protocols, and luminescence was measured using a Tecan Spark 10 M. Experiments were conducted in technical triplicate. Data was normalized to the DMSO control and analyzed with GraphPad Prism 8.0.1 to determine EC50 values. Synergistic effects of venetoclax and AF151 on cell MOLM-13 viability were conducted accordingly, with dilution series of both compounds analyzed using the SynergyFinder+ webtoolkit.[57]

[4] = system: METTL3; design: method as in PMID 38194973; details: cited from earlier work
[5] = system: METTL3 mRNA; experiment: RT-qPCR of METTL3 mRNA expression; type: cell-based, human; details: MOLM-13, AF151 2 μM or STM2457 10 μM, 24 h and 48 h
Procedure: (§1) To determine mRNA expression levels of METTL3 and METTL14, MOLM-13 cells were treated in triplicate with compound 41 (AF151, 2 μM), STM2457 (10 μM), and DMSO for 24 resp. 48 h. Afterward, total RNA was extracted using the TRIzol™ reagent (Thermo Fisher Scientific) and purified with the Monarch® Spin RNA Cleanup Kit (New England Biolabs). RT-qPCR was conducted using the two-step GoTaq® RT-qPCR system (Promega) following the manufacturer's protocol. The data were normalized to the DMSO control and GAPDH housekeeping gene (ΔΔCt) using GraphPad Prism 8.0.1.

[6] = target: T3, METTL3 (Homo sapiens, UniProt Q86U44); experiment: Immunoblotting of METTL3 protein levels in MOLM-13 cells; type: cell-based; details: MOLM-13, 0.1-10 μM, 16 h
T3 construct: endogenous in cells; host or cells: MOLM-13
Procedure: MOLM-13 were seeded in 12-well cell culture plates at a density of 1 × 10^6 cells per mL and treated with DMSO (final: 0.1%) or different concentrations of PROTAC degraders in DMSO at the indicated times. Treatments were conducted in biological triplicate with varying passages of MOLM-13 cells. The cells were harvested by centrifugation at 500g for 5 min and washed with PBS. The cells were lysed with RIPA lysis buffer with the addition of protease inhibitor (1× cOMPLETE), and insoluble cellular parts were separated by centrifugation (12 000g for 10 min), subsequently, the supernatant was boiled with 1× Laemmli sample buffer (Carl Roth) for 5 min at 95 °C. Proteins were separated by SDS–PAGE on 4–20% Criterion™ TGX™ Precast Protein Gels (Bio-Rad) and transferred to Amersham™ Protean® 0.45 μm nitrocellulose membrane (Cytiva) using semi-dry transfer (25 V, 1 A, Towbin buffer). The membrane was blocked with 5% milk (Carl Roth) in TBST buffer and incubated with the following primary antibodies: Anti-METTL3 (1 : 1000, Abcam, ab195352), anti-METTL14 (1 : 1000, Abcam, ab220030), anti-Bcl2 (1 : 1000, Cell Signaling Technology [CST], EPR16891), anti-Mcl-1 (1 : 1000, CST, 5453 T), anti-Bcl-XL (1 : 1000, CST, 2764 T), anti-vinculin (1 : 1000, CST, 13901) or anti-GAPDH (1 : 5000, CST, D17C4) overnight at 4 °C. Subsequently, the membrane was incubated for 1 h at RT with secondary antibodies: anti-rabbit (1 : 2000, VWR, NA934) or anti-mouse (1 : 2000, VWR, 102646-160). The protein bands were detected via chemiluminescence using Pierce™ ECL western blotting substrate and a Fusion FX imaging system (Vilber). The ImageLab software (Bio-Rad) was used for band quantification.

[7] = system: METTL14 mRNA; experiment: RT-qPCR of METTL14 mRNA expression; type: cell-based, human; details: MOLM-13, AF151 2 μM or STM2457 10 μM, 24 h and 48 h
Procedure: as §1

[8] = target: METTL3; design: method as in PMID 33902106; details: cited from earlier work

T1 sequence (P40337 whole entry, the tested form may be a part): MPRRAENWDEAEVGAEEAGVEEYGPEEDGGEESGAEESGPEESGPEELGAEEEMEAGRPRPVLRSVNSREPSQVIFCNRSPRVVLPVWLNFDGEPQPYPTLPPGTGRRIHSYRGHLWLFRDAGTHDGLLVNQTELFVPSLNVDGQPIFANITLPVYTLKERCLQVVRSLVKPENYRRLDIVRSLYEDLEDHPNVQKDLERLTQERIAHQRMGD
T1 sequence (Q15370 whole entry partner, the tested form may be a part): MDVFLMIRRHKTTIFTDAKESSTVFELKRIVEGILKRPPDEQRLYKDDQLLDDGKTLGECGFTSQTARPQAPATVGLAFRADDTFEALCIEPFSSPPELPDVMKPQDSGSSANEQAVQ
T1 sequence (Q15369 17-112 partner limits assumed): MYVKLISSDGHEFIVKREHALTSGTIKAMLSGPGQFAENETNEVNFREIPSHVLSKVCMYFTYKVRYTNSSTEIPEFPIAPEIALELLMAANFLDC
T2 sequence (P40337 whole entry): as the sequence (P40337 whole entry, the tested form may be a part) above
T2 sequence (Q15370 whole entry partner): as the sequence (Q15370 whole entry partner, the tested form may be a part) above
T2 sequence (Q15369 whole entry partner): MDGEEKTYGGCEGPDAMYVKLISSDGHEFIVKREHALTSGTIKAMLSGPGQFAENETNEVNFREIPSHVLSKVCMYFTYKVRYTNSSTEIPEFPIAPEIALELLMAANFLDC
T3 sequence (Q86U44 whole entry): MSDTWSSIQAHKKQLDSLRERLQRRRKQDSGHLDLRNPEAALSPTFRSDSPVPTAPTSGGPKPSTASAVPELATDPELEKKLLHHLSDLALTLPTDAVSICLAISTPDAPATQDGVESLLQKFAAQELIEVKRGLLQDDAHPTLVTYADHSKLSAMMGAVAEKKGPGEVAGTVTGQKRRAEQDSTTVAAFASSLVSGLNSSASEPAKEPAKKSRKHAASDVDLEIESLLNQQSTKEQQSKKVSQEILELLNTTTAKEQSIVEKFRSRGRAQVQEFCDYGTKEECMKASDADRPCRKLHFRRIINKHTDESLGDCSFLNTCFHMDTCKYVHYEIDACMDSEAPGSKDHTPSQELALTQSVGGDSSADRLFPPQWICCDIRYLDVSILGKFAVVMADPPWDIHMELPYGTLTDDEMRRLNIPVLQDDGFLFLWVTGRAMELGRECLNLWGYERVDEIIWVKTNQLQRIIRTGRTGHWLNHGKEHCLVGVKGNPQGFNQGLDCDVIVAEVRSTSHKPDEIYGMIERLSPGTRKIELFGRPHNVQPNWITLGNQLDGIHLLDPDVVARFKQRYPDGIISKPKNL

Row | Kd ([1]; 40 nM VCB, 10 nM probe, absence of METTL3, read-out: KD E3-ligases (VHL, FP), binary) | Kd ([1]; absence of METTL3, read-out: KD binary (VHL)) | Kd ([1]; presence of METTL3/14 (12 μM), read-out: KD ternary (VHL)) | cooperativity (HTRF) [2] | IC50 ([3]; Homo sapiens) | Molecule | Dmax (METTL3 degradation) [4] | DC50 ([4]; read-out: DC50 (METTL3 degradation)) | METTL3 mRNA level (ΔΔCt) [5] | METTL3 degradation (Western blot screening) [6] | METTL14 mRNA level (ΔΔCt) [7] | Kd [8] | IC50 [3]
1 | 1700 nM | 1760 ± 264 nM | 77.4 nM and 79 nM | positive cooperativity | 780 nM | Cc1ncsc1-c1ccc([C@H](C)NC(=O)[C@@H]2C[C@@H](O)CN2C(=O)[C@@H](NC(=O)CCC#Cc2ccc(CNc3cc(N4CCC5(CC4)CN(c4cc(F)c(CN6CCC(C)(C)CC6)cc4F)CC(=O)N5)ncn3)cc2)C(C)(C)C)cc1 [WD6305] | ~91% | 140 nM | – | – | – | – | –
2 | – | – | – | – | – | STM2457 [reference compound] | – | – | no significant changes | do not func?on as METTL3 degraders | no significant changes | 1.4 nM | 1820 nM
